# How the values were obtained:
# [1] = Measurement of the shortest wavelength of full width at half maximum (FWHM) with respect to maximum absorption wavelength (absorption spectrum); format: physicochemical; conditions: 0.005 wt % in PGMEA; UV-1800
# Text: The shortest wavelength of the full width at half maximum (FWHM) with respect to the maximum absorption wavelengths denotes a wavelength having the smallest value (a) among the energy widths (Δλ) of the maximum absorption wavelength (b) in the absorption spectrum of a particular phthalocyanine compound. (Refer to the FIGURE)
# Evaluation 1: Measurement of the Shortest Wavelength of Full Width at Half Maximum (FWHM) with respect to Maximum Absorption Wavelength
# The compounds according to Synthesis Example 1 to Synthesis Example 21 and Comparative Synthesis Example 1 to Comparative Synthesis Example 6 were prepared at a concentration of 0.005 wt % using a diluting solvent (PGMEA). Absorption spectra were obtained for each of the phthalocyanine compounds according to Synthesis Example 1 to […] and Comparative Synthesis Example 1 to Comparative Synthesis Example 6, and the results are shown in Table 1 (UV-1800, SHTMADZU).
# [2] = Solubility measurement in dilution solvent (PGMEA); format: physicochemical; conditions: PGMEA added to 0.5 g compound, stirred 100 rpm, one hour, 25° C.
# Procedure: Evaluation 2: Solubility Measurement Solubility of the compounds according to Synthesis Examples 11 to 21 and Comparative Synthesis Examples 1 to 6 were measured by adding a dilution solvent (PGMEA) to 0.5 g of each compound and respectively stirring the mixtures (MIXROTAR VMR-5, Iuchi Seiei Dou Co.) at 100 rpm for one hour at 25° C., and the results are shown in Table 2. Solubility Evaluation Criteria Greater than or equal to 10 wt % of a compound (a solute) based on a total amount of a diluting solvent was dissolved: ∘ Less than 10 wt % of a compound (a solute) based on a total amount of a diluting solvent was dissolved: X
Structure (SMILES),The shortest wavelength (nm) of full width at half maximum (FWHM) with respect to maximum absorption wavelength [1] [nm],Solubility [2]
"CCC(C)c1ccccc1Oc1c(Cl)c(Cl)c2c(c1Cl)C1=NC/2=N\c2c3c(Cl)c(Cl)c(Oc4ccccc4C(C)CC)c(Cl)c3c3[n]2[Zn][n]2/c(c4c(Cl)c(Cl)c(Oc5ccccc5C(C)CC)c(Cl)c4/c2=N/C2=NC(=N\3)/c3c(Cl)c(Oc4ccccc4C(C)CC)c(Cl)c(Cl)c32)=N\1 (stereo not shown) [Comparative Synthesis Example 1, reference compound]",628,X (Less than 10 wt % of a compound (a solute) based on a total amount of a diluting solvent was dissolved)
"CC(C)(C)c1ccc(Oc2c(Cl)c(Cl)c3c(c2Cl)C2=NC/3=N\c3c4c(Cl)c(Cl)c(Oc5ccc(C(C)(C)C)cc5C(C)(C)C)c(Cl)c4c4[n]3[Zn][n]3/c(c5c(Cl)c(Cl)c(Oc6ccc(C(C)(C)C)cc6C(C)(C)C)c(Cl)c5/c3=N/C3=NC(=N\4)/c4c(Cl)c(Oc5ccc(C(C)(C)C)cc5C(C)(C)C)c(Cl)c(Cl)c43)=N\2)c(C(C)(C)C)c1 [Comparative Synthesis Example 2, reference compound]",624,X (Less than 10 wt % of a compound (a solute) based on a total amount of a diluting solvent was dissolved)
"COc1ccc(Oc2c(Cl)c(Cl)c3c(c2Cl)C2=NC/3=N\c3c4c(Cl)c(Oc5ccc(OC)cc5OC)c(Cl)c(Cl)c4c4[n]3[Zn][n]3/c(c5c(Cl)c(Cl)c(Oc6ccc(OC)cc6OC)c(Cl)c5/c3=N/C3=NC(=N\4)/c4c(Cl)c(Oc5ccc(OC)cc5OC)c(Cl)c(Cl)c43)=N\2)c(OC)c1 [Comparative Synthesis Example 3, reference compound]",623,X (Less than 10 wt % of a compound (a solute) based on a total amount of a diluting solvent was dissolved)
"COc1ccc(Oc2c(Cl)c(Cl)c3c4[n]5c(c3c2Cl)/N=C2N=C(/N=c3/c6c(Cl)c(Cl)c(Cl)c(Cl)c6/c([n]3[Zn]5)=N/C3=NC(=N\4)/c4c(Cl)c(Cl)c(Cl)c(Cl)c43)c3c(Cl)c(Cl)c(Cl)c(Cl)c3\2)c(OC)c1 [Comparative Synthesis Example 4, reference compound]",626,X (Less than 10 wt % of a compound (a solute) based on a total amount of a diluting solvent was dissolved)
"CC(C)(C)c1ccccc1Oc1c(Cl)c(Cl)c2c(c1Cl)/C1=N/c3c4c(Cl)c(Oc5ccccc5C(C)(C)C)c(Cl)c(Cl)c4c4[n]3[Zn][n]3/c(c5cc(Cl)c(Cl)cc5/c3=N/C2=N1)=N\C1=NC(=N\4)/c2c(Cl)c(Cl)c(Cl)c(Cl)c21 [Comparative Synthesis Example 5, reference compound]",625,X (Less than 10 wt % of a compound (a solute) based on a total amount of a diluting solvent was dissolved)
"CC(C)(C)c1ccccc1Oc1c(Cl)c(Cl)c2c(c1Cl)/C1=N/c3c4c(Cl)c(Oc5ccccc5C(C)(C)C)c(Cl)c(Cl)c4c4[n]3[Zn][n]3/c(c5cc(Cl)ccc5/c3=N/C2=N1)=N\C1=NC(=N\4)/c2c(Cl)c(Cl)c(Cl)c(Cl)c21 [Comparative Synthesis Example 6, reference compound]",623,X (Less than 10 wt % of a compound (a solute) based on a total amount of a diluting solvent was dissolved)
CC(C)c1ccccc1Oc1c(Cl)c(Cl)c2c(c1Cl)/C1=N/c3c4c(Cl)c(Oc5ccccc5C(C)C)c(Cl)c(Cl)c4c4[n]3[Zn][n]3/c(c5ccccc5/c3=N/C2=N1)=N\C1=NC(=N\4)/c2c(Cl)c(Cl)c(Cl)c(Cl)c21 [Synthesis Example 1],616,○
CC(C)c1ccccc1Oc1c(Cl)c(Cl)c2c(c1Cl)/C1=N/c3c4c(Cl)c(Cl)c(Cl)c(Cl)c4c4[n]3[Zn][n]3/c(c5ccccc5/c3=N/C2=N1)=N\C1=NC(=N\4)/c2c(Cl)c(Cl)c(Cl)c(Cl)c21 [Synthesis Example 2],617,○
CC(C)(C)c1ccccc1Oc1c(Cl)c(Cl)c2c(c1Cl)/C1=N/c3c4c(Cl)c(Oc5ccccc5C(C)(C)C)c(Cl)c(Cl)c4c4[n]3[Zn][n]3/c(c5ccccc5/c3=N/C2=N1)=N\C1=NC(=N\4)/c2c(Cl)c(Cl)c(Cl)c(Cl)c21 [Synthesis Example 3],618,○
CC(C)(C)c1ccccc1Oc1c(Cl)c(Cl)c2c(c1Cl)/C1=N/c3c4c(Cl)c(Cl)c(Cl)c(Cl)c4c4[n]3[Zn][n]3/c(c5ccccc5/c3=N/C2=N1)=N\C1=NC(=N\4)/c2c(Cl)c(Cl)c(Cl)c(Cl)c21 [Synthesis Example 4],617,○
Cc1ccccc1Oc1c(Cl)c(Cl)c2c(c1Cl)/C1=N/c3c4c(Cl)c(Oc5ccccc5C)c(Cl)c(Cl)c4c4[n]3[Zn][n]3/c(c5ccccc5/c3=N/C2=N1)=N\C1=NC(=N\4)/c2c(Cl)c(Cl)c(Cl)c(Cl)c21 [Synthesis Example 5],618,○
Cc1cccc(C)c1Oc1c(Cl)c(Cl)c2c(c1Cl)/C1=N/c3c4c(Cl)c(Oc5c(C)cccc5C)c(Cl)c(Cl)c4c4[n]3[Zn][n]3/c(c5ccccc5/c3=N/C2=N1)=N\C1=NC(=N\4)/c2c(Cl)c(Cl)c(Cl)c(Cl)c21 [Synthesis Example 6],618,○
Cc1cccc(C)c1Oc1c(Cl)c(Cl)c2c(c1Cl)/C1=N/c3c4c(Cl)c(Cl)c(Cl)c(Cl)c4c4[n]3[Zn][n]3/c(c5ccccc5/c3=N/C2=N1)=N\C1=NC(=N\4)/c2c(Cl)c(Cl)c(Cl)c(Cl)c21 [Synthesis Example 7],618,○
CC(C)(C)c1ccc(Oc2c(Cl)c(Cl)c3c(c2Cl)/C2=N/c4c5c(Cl)c(Oc6ccc(C(C)(C)C)cc6C(C)(C)C)c(Cl)c(Cl)c5c5[n]4[Zn][n]4/c(c6ccccc6/c4=N/C3=N2)=N\C2=NC(=N\5)/c3c(Cl)c(Cl)c(Cl)c(Cl)c32)c(C(C)(C)C)c1 [Synthesis Example 8],616,○
CC(C)(C)c1ccc(Oc2c(Cl)c(Cl)c3c(c2Cl)/C2=N/c4c5c(Cl)c(Cl)c(Cl)c(Cl)c5c5[n]4[Zn][n]4/c(c6ccccc6/c4=N/C3=N2)=N\C2=NC(=N\5)/c3c(Cl)c(Cl)c(Cl)c(Cl)c32)c(C(C)(C)C)c1 [Synthesis Example 9],618,○
Cc1ccc(Oc2c(Cl)c(Cl)c3c(c2Cl)/C2=N/c4c5c(Cl)c(Oc6ccc(C)cc6C(C)(C)C)c(Cl)c(Cl)c5c5[n]4[Zn][n]4/c(c6ccccc6/c4=N/C3=N2)=N\C2=NC(=N\5)/c3c(Cl)c(Cl)c(Cl)c(Cl)c32)c(C(C)(C)C)c1 [Synthesis Example 10],616,○
Cc1ccc(Oc2c(Cl)c(Cl)c3c(c2Cl)/C2=N/c4c5c(Cl)c(Oc6ccc(C)cc6C(C)(C)C)c(Cl)c(Cl)c5c5[n]4[Zn][n]4/c(c6ccccc6/c4=N/C3=N2)=N\C2=NC(=N\5)/c3ccccc32)c(C(C)(C)C)c1 [Synthesis Example 11],611,○

# From patent US11852971B2, “Compound, photosensitive resin composition including the same, photosensitive resin layer, color filter and display device” (SAMSUNG SDI CO., LTD., priority 2019, dated 2023)
